Test results taken from ChEMBL document CHEMBL1201862, “PubChem BioAssay data set” (2004).
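96-well plates; 48 h exposure; 5 concentrations. Endpoints by linear interpolation between flanking doses. Not reached: highest tested concentration assigned. At the GI50, growth is halved.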 Active and inactive are the calls of the source. Rule as the data show it: active = GI50 up to about 1.1 µM and inactive = higher.

What was measured:
Assay in all cases: NCI tumour cell line growth inhibition, 48 h
[1] = test system: 786-0
[2] = test system: A498
[3] = test system: A549
[4] = test system: ACHN
[5] = test system: BT-549
[6] = test system: CAKI-1
[7] = test system: CCRF-CEM
[8] = test system: COLO 205
[9] = test system: DU-145
[10] = test system: EKVX
[11] = test system: HCC 2998
[12] = test system: HCT-116
[13] = test system: HCT-15
[14] = test system: HL-60
[15] = test system: HOP-62
[16] = test system: HOP-92
[17] = test system: HT-29
[18] = test system: Hs-578T
[19] = test system: IGROV-1
[20] = test system: K562
[21] = test system: KM12
[22] = test system: LOX IMVI
[23] = test system: M14
[24] = test system: MCF7
[25] = test system: MDA-MB-231
[26] = test system: MDA-MB-435
[27] = test system: MDA-N
[28] = test system: MOLT-4
[29] = test system: Malme-3M
[30] = test system: NCI-H226
[31] = test system: NCI-H23
[32] = test system: NCI-H460
[33] = test system: NCI-H522
[34] = test system: NCI/ADR-RES
[35] = test system: OVCAR-4
[36] = test system: OVCAR-5
[37] = test system: OVCAR-8
[38] = test system: PC-3
[39] = test system: RPMI-8226
[40] = test system: RXF 393
[41] = test system: SF-268
[42] = test system: SF-295
[43] = test system: SF-539
[44] = test system: SK-MEL-28
[45] = test system: SK-MEL-2
[46] = test system: SK-MEL-5
[47] = test system: SK-OV-3
[48] = test system: SN12C
[49] = test system: SNB-19
[50] = test system: SNB-75
[51] = test system: SR
[52] = test system: SW-620
[53] = test system: T47D
[54] = test system: TK-10
[55] = test system: U-251
[56] = test system: UACC-257
[57] = test system: UACC-62
[58] = test system: UO-31
[59] = test system: OVCAR-3

## COCn1c(C)c(C)c2c(=O)oc(C)nc21
[1]
  GI50: > 100 µM (inactive)
[2]
  GI50: > 100 µM (inactive)
[3]
  GI50: > 100 µM (inactive)
[4]
  GI50: > 100 µM (inactive)
[5]
  GI50: > 100 µM (inactive)
[6]
  GI50: 0.288 µM (active)
[7]
  GI50: > 100 µM (inactive)
[8]
  GI50: > 100 µM (inactive)
[9]
  GI50: > 100 µM (inactive)
[10]
  GI50: > 100 µM (inactive)
[11]
  GI50: > 100 µM (inactive)
[12]
  GI50: > 100 µM (inactive)
[13]
  GI50: > 100 µM
[14]
  GI50: > 100 µM (inactive)
[15]
  GI50: 70.8 µM (inactive)
[16]
  GI50: > 100 µM (inactive)
[17]
  GI50: > 100 µM (inactive)
[18]
  GI50: > 100 µM (inactive)
[19]
  GI50: > 100 µM (inactive)
[20]
  GI50: > 100 µM (inactive)
[21]
  GI50: > 100 µM (inactive)
[22]
  GI50: > 100 µM (inactive)
[23]
  GI50: > 100 µM (inactive)
[24]
  GI50: > 100 µM (inactive)
[25]
  GI50: > 100 µM (inactive)
[26]
  GI50: > 100 µM (inactive)
[27]
  GI50: > 100 µM (inactive)
[28]
  GI50: > 100 µM (inactive)
[29]
  GI50: > 100 µM (inactive)
[30]
  GI50: > 100 µM (inactive)
[31]
  GI50: > 100 µM (inactive)
[32]
  GI50: > 100 µM (inactive)
[33]
  GI50: 94.2 µM (inactive)
[34]
  GI50: > 100 µM (inactive)
[35]
  GI50: > 100 µM (inactive)
[36]
  GI50: > 100 µM (inactive)
[37]
  GI50: > 100 µM (inactive)
[38]
  GI50: > 100 µM (inactive)
[39]
  GI50: > 100 µM (inactive)
[40]
  GI50: > 100 µM (inactive)
[41]
  GI50: > 100 µM (inactive)
[42]
  GI50: > 100 µM (inactive)
[43]
  GI50: > 100 µM (inactive)
[44]
  GI50: > 100 µM (inactive)
[45]
  GI50: > 100 µM (inactive)
[46]
  GI50: > 100 µM (inactive)
[47]
  GI50: > 100 µM (inactive)
[48]
  GI50: > 100 µM (inactive)
[49]
  GI50: > 100 µM (inactive)
[50]
  GI50: 83.4 µM (inactive)
[51]
  GI50: > 100 µM (inactive)
[52]
  GI50: > 100 µM (inactive)
[53]
  GI50: > 100 µM (inactive)
[54]
  GI50: > 100 µM (inactive)
[55]
  GI50: > 100 µM (inactive)
[56]
  GI50: > 100 µM (inactive)
[57]
  GI50: > 100 µM (inactive)
[58]
  GI50: 89.1 µM (inactive)

## C=C1C(=O)OC2C1C(OC(=O)/C(C)=C/C)CC(O)(CCl)C1C(O)C3OC3(C)C21O (stereo unspecified)
[1]
  GI50: 15.9 µM (inactive)
[2]
  GI50: > 50 µM (inactive)
[3]
  GI50: > 50 µM (inactive)
[4]
  GI50: 19.9 µM (inactive)
[5]
  GI50: 17.4 µM (inactive)
[6]
  GI50: 13.2 µM (inactive)
[7]
  GI50: 12.4 µM (inactive)
[8]
  GI50: 13.3 µM (inactive)
[9]
  GI50: > 50 µM (inactive)
[10]
  GI50: > 50 µM (inactive)
[11]
  GI50: > 50 µM (inactive)
[12]
  GI50: 10.8 µM (inactive)
[13]
  GI50: 17.1 µM
[14]
  GI50: 8.79 µM (inactive)
[15]
  GI50: > 50 µM (inactive)
[16]
  GI50: 24.9 µM (inactive)
[17]
  GI50: 36.9 µM (inactive)
[18]
  GI50: > 50 µM (inactive)
[19]
  GI50: > 50 µM (inactive)
[20]
  GI50: 18 µM (inactive)
[21]
  GI50: > 50 µM (inactive)
[22]
  GI50: 18.9 µM (inactive)
[23]
  GI50: 23.3 µM (inactive)
[24]
  GI50: 18.2 µM (inactive)
[25]
  GI50: > 50 µM (inactive)
[26]
  GI50: 48.5 µM (inactive)
[27]
  GI50: 26.6 µM (inactive)
[28]
  GI50: 13.6 µM (inactive)
[29]
  GI50: 0.735 µM (active)
[30]
  GI50: > 50 µM (inactive)
[31]
  GI50: 34.5 µM (inactive)
[32]
  GI50: > 50 µM (inactive)
[33]
  GI50: 0.7 µM (active)
[34]
  GI50: > 50 µM (inactive)
[59]
  GI50: 27.5 µM (inactive)
[35]
  GI50: > 50 µM (inactive)
[36]
  GI50: > 50 µM (inactive)
[37]
  GI50: 13.2 µM (inactive)
[38]
  GI50: > 50 µM (inactive)
[39]
  GI50: 16.1 µM (inactive)
[40]
  GI50: 9.77 µM (inactive)
[41]
  GI50: > 50 µM (inactive)
[42]
  GI50: > 50 µM (inactive)
[43]
  GI50: > 50 µM (inactive)
[44]
  GI50: > 50 µM (inactive)
[45]
  GI50: > 50 µM (inactive)
[46]
  GI50: 28.2 µM (inactive)
[47]
  GI50: > 50 µM (inactive)
[48]
  GI50: > 50 µM (inactive)
[49]
  GI50: > 50 µM (inactive)
[50]
  GI50: > 50 µM (inactive)
[51]
  GI50: 17 µM (inactive)
[52]
  GI50: 13.4 µM (inactive)
[53]
  GI50: 23.8 µM (inactive)
[54]
  GI50: 40.1 µM (inactive)
[55]
  GI50: > 50 µM (inactive)
[56]
  GI50: > 50 µM (inactive)
[57]
  GI50: 34.6 µM (inactive)
